Test results published in ChEMBL document CHEMBL4673347, “Discovery of new thieno[2,3-d]pyrimidine and thiazolo[5,4-d]pyrimidine derivatives as orally active phosphoinositide 3-kinase inhibitors” (Bioorg Med Chem, 2021).

Tests used:
[1] = molecular target: Phosphatidylinositol 4,5-bisphosphate 3-kinase catalytic subunit alpha isoform (Homo sapiens, UniProt P42336); assay: Inhibition of recombinant human full length His-tagged PI3Kalpha expressed in baculovirus expression system using PIP2 as substrate by ADP-Glo reagent based assay
[2] = test system: HGC-27; assay: Antiproliferative activity against human HGC-27 cells assessed as reduction in cell viability incubated for 72 hrs measured after 4 hrs of MTT addition by MTT assay; format: functional, cell-based
[3] = test system: HGC-27; assay: Induction of apoptosis in human HGC-27 cells assessed as viable cells at 500 nM incubated for 24 hrs by annexin V-FITC and propidium iodide based staining based flow cytometry analysis (reference value: 83.7 %); format: functional; conditions: read-out: Activity
[4] = test system: HGC-27; assay: Induction of apoptosis in human HGC-27 cells assessed as early apoptotic cells at 500 nM incubated for 24 hrs by annexin V-FITC and propidium iodide based staining based flow cytometry analysis (reference value: 6.22 %); format: functional
[5] = test system: HGC-27; assay: Induction of apoptosis in human HGC-27 cells assessed as late apoptotic cells at 500 nM incubated for 24 hrs by annexin V-FITC and propidium iodide based staining based flow cytometry analysis (reference value: 8.15 %); format: functional
[6] = test system: HGC-27; assay: Induction of apoptosis in human HGC-27 cells assessed as necrotic cells at 500 nM incubated for 24 hrs by annexin V-FITC and propidium iodide based staining based flow cytometry analysis (reference value: 1.95 %); format: functional

Sequence of Phosphatidylinositol 4,5-bisphosphate 3-kinase catalytic subunit alpha isoform (P42336 whole entry, canonical isoform): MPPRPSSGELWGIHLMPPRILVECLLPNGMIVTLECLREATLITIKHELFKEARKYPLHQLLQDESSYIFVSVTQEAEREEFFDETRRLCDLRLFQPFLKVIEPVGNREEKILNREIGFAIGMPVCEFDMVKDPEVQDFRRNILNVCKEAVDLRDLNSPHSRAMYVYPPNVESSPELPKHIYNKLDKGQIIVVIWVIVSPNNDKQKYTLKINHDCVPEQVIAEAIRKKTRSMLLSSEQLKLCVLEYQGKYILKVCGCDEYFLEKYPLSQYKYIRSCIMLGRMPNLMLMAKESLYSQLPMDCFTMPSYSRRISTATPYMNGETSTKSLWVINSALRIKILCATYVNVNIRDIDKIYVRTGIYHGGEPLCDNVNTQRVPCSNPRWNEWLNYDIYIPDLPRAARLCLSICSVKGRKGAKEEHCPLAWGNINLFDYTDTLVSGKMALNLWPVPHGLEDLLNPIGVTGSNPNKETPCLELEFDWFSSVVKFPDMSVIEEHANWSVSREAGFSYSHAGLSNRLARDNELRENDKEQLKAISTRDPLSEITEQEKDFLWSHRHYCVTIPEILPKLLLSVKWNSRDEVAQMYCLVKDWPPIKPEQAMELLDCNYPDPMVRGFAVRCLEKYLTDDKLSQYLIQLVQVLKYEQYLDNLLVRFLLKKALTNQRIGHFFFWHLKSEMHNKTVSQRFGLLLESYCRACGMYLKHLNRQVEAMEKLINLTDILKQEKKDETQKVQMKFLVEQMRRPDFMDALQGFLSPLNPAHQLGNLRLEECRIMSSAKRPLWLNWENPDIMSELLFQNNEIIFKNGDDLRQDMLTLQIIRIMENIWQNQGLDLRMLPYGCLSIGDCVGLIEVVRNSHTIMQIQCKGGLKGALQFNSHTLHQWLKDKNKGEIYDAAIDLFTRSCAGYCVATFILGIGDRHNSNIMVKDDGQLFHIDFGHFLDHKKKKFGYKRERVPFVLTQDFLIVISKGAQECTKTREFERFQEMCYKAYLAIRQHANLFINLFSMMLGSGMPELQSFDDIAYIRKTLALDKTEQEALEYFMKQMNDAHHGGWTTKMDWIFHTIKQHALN

| SMILES | IC50 [1] [nM] | IC50 [2] [nM] | also measured |
| --- | --- | --- | --- |
| COc1ncc(-c2cc3c(N4CC(OC)C4)ncnc3s2)cc1NS(=O)(=O)c1ccc(F)cc1F | 7.2 | 830 |  |
| COc1ncc(-c2cc3c(N4CCCC4)ncnc3s2)cc1NS(=O)(=O)c1ccc(F)cc1F | 14 | 2300 |  |
| COc1ncc(-c2nc3c(N4CC5CCCC5C4)ncnc3s2)cc1NS(=O)(=O)c1ccc(F)cc1F (stereo unspecified) | 6.3 | 310 |  |
| Nc1cc(C(F)(F)F)c(-c2cc(N3CCOCC3)nc(N3CCOCC3)n2)cn1 [BUPARLISIB] |  |  | viability at 0.5 µM [3]: 74.9%; Activity [4]: 15.9%; Activity [5]: 8.93%; Activity [6]: 0.3% |
| COc1ncc(-c2cc3c(N4CC5COCC5C4)ncnc3s2)cc1NS(=O)(=O)c1ccc(F)cc1F (stereo unspecified) | 14 | 300 |  |
| COc1ncc(-c2cc3c(N4CCOC[C@H]4C)ncnc3s2)cc1NS(=O)(=O)c1ccc(F)cc1F | 14 | 470 |  |
| COc1ncc(-c2nc3c(N4CC(C)OC(C)C4)ncnc3s2)cc1NS(=O)(=O)c1ccc(F)cc1F (stereo unspecified) | 11 | 270 |  |
| COc1ncc(-c2cc3c(N4CC5CCCC5C4)ncnc3s2)cc1NS(=O)(=O)c1ccc(F)cc1F (stereo unspecified) | 47 | 1900 |  |
| COc1ncc(-c2cc3c(N4CCN(C)CC4)ncnc3s2)cc1NS(=O)(=O)c1ccc(F)cc1F | 109 | 560 |  |
| COc1ncc(-c2nc3c(N4CCOC[C@@H]4C)ncnc3s2)cc1NS(=O)(=O)c1ccc(F)cc1F | 2 | 170 |  |
| COc1ncc(-c2nc3c(N4CCOC[C@H]4C)ncnc3s2)cc1NS(=O)(=O)c1ccc(F)cc1F | 1.9 | 47 |  |
| COc1ncc(-c2cc3c(N4CCOC[C@@H]4C)ncnc3s2)cc1NS(=O)(=O)c1ccc(F)cc1F | 11 | 670 |  |
| COc1ncc(-c2cc3c(N4CCCCC4)ncnc3s2)cc1NS(=O)(=O)c1ccc(F)cc1F | 14 | 1200 |  |
| COc1ncc(-c2cc3c(-c4ccncc4)ncnc3s2)cc1NS(=O)(=O)c1ccc(F)cc1F | 5.1 | 1700 |  |
| COc1ncc(-c2cc3c(N4CCSCC4)ncnc3s2)cc1NS(=O)(=O)c1ccc(F)cc1F | 17 | 810 |  |
| COc1ncc(-c2cc3c(N4C[C@@H](C)O[C@@H](C)C4)ncnc3s2)cc1NS(=O)(=O)c1ccc(F)cc1F | 15 | 560 |  |
| COc1ncc(-c2nc3c(N4CCCC4)ncnc3s2)cc1NS(=O)(=O)c1ccc(F)cc1F | 3.5 | 1200 |  |
| COc1ncc(-c2nc3c(N4CCCCC4)ncnc3s2)cc1NS(=O)(=O)c1ccc(F)cc1F | 8.8 | 960 |  |
| COc1ncc(-c2cc3c(N4CC(C)OC(C)C4)ncnc3s2)cc1NS(=O)(=O)c1ccc(F)cc1F (racemic) | 16 | 860 |  |
| COc1ncc(-c2cc3c(N4CCN(C)C(=O)C4)ncnc3s2)cc1NS(=O)(=O)c1ccc(F)cc1F | 16 | 920 |  |
| COc1ncc(-c2nc3c(N4CCC(OC)CC4)ncnc3s2)cc1NS(=O)(=O)c1ccc(F)cc1F | 1.3 | 74 |  |
| COc1ncc(-c2cc3c(N4CCC(OC)CC4)ncnc3s2)cc1NS(=O)(=O)c1ccc(F)cc1F | 4.8 | 280 |  |
